{"source": "patent US20090163591A1", "about": "“USE OF SUGAR PHOSPHATES, SUGAR PHOSPHATE ANALOGS, AMINO ACIDS AND/OR AMINO ACID ANALOGS FOR MODULATING THE GLUCOLYSIS-ENZYME COMPLEX, THE MALATE ASPARATE SHUTTLE AND/OR THE TRANSAMINASES” (priority 2001, published 2009)", "key": {"Novikoff hepatoma": {"system": "Novikoff hepatoma", "assay": "Novikoff hepatoma tumor model in rats, IV infusion, tumor volume", "assay_type": "in vivo, rat", "conditions": "for inhibition of tumor growth if the tumor was relatively small at the beginning of the treatment: Novikoff hepatoma, IV infusion, in some cases apoptosis; for inhibition of the tumor growth (tumor size): subcutaneous Novikoff hepatoma, continuous IV infusion over 10 days, 1.25 mM aminooxyacetate or 10 μM CHBA, beginning with a tumor volume of 1 ml, vs NaCl control", "experimental": "As a tumor model, immuno-competent adult rats were used, treated with IV infusion. This animal model provides better correlation to human therapy than immuno-incompetent nude mice, which are commonly used. The animal tests were approved according to paragraph 8 section 1 of the German Animal Protection Act, and were performed according to the recommendations of the Tieraerztliche Vereinigung fuer Tierschutz e.V. (Veterinarians' Association for Animal Protection). Male inbreed rats (Sprague-Dawley, 200-250 g, Charles River, Sulzfeld, Germany) were used as tumor recipients.\nNovikoff hepatoma was used as the source of tumor cells. Of several tested, experimentally produced tumors, the Novikoff hepatoma best all requirements of a solid tumor having all signs of malignity and similarity to hepatocellular carcinoma in humans. The Novikoff hepatoma was induced by Alex B. Novikoff in […] by feeding a diet containing 0.06% […] (butter yellow) to female Sprague-Dawley rats (Novikoff B., A transplantable rat liver tumour induced by 4-dimethylaminoazobenzene. Cancer Res. 1951; 17:1010). […] The chromatin structure in the tumor cells appears in an irregular form, and the nuclei are indented, round and oval.\nThe Deutsches Krebsforschungsinstitut in Heidelberg provided the Novikoff hepatoma cells. The cells were received in Hank's solution and intraperitoneally injected in a sterile manner into a Sprague-Dawley rat for passaging. Within a week, approximately 50 ml hemorrhagic ascites were generated and removed in a sterile manner. The pellet generated after centrifugation at 1,300 rpm for five minutes in a Falcon tube was prepped for further purification of cells from other ascites components by washing with 50 ml Dulbecco's MEM (Gibco BRL, Eggenstein) and centrifugation at 1,300 rpm for five minutes. The supernatant was decanted, and the pellet was mixed in Dulbecco's+40% fetal calf serum (FCS). 0.7 ml cell suspension and 0.7 freezing medium each were filled in Nunc tubes, airtight sealed, pre-cooled for five minutes at −20° C. and for 12 hours at −80° C., and then deep-frozen in liquid nitrogen. The freezing medium was 40% Dulbecco's, 40% FCS and 20% DMSO.\nThe cells were prepared for the application as follows: after thawing, the pellet was reacted in a Falcon tube with 50 ml of a medium (Dulbecco's+40% FCS), pre-heated to 37° C., and centrifuged for five minutes at 1,300 rpm. […]\nAfter centrifugation and decantation of the supernatant, the pellet was suspended in HBSS, 100 microlitres were sampled with an Eppendorf pipette and counted for determining the number of vital cells after vital staining with erythrosine (BioMed, Munich, Germany) in a Neubauer counting chamber. […]\nThe tumor size was determined by CT-supported volumetry. […]"}, "Novikoff hepatoma cells": {"system": "Novikoff hepatoma cells", "assay": "Dose-dependence of proliferation inhibition, cell density of cultivated Novikoff hepatoma cells", "assay_type": "cell-based, rat", "conditions": "four days of cultivation, at higher dosage levels", "experimental": "For the experiments, Novikoff hepatoma cells were cultivated in a conventional manner. The control substance contained a solvent without an active ingredient. The other groups received different doses of a respective test compound. After four days of cultivation with or without active ingredient, the cell density was determined using standard methods. In FIG. 2 is shown the dose-dependence of obtained cell densities for aminooxyacetate, in FIG. 3 for CHBA, in FIG. 4 for glycerate-2,3-bisphosphate, and in FIG. 5 for fructose-1,6-bisphosphate."}, "M2-PK": {"target": "M2-PK (Homo sapiens, UniProt P14618)", "sequence (P14618 whole entry, species assumed)": "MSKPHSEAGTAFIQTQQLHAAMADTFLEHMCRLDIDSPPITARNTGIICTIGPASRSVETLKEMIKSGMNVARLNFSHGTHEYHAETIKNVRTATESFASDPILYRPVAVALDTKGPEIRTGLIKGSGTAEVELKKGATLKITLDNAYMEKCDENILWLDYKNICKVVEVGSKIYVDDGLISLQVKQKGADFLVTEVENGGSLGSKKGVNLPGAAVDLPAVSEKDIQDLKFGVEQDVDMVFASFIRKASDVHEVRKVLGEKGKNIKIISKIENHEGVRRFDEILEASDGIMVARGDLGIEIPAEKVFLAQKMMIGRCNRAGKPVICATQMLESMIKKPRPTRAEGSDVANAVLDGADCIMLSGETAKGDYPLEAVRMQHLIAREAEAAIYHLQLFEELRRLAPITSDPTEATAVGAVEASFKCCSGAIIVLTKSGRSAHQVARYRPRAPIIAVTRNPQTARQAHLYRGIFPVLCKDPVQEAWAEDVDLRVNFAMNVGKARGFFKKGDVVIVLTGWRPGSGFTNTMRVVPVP", "conditions": "known from Eigenbrodt et al. 1992; cited from earlier work"}, "[1]": {"target": "T1, glutamate pyruvate transaminase (Homo sapiens, UniProt P24298)", "T1 sequence (P24298 2-496 limits assumed)": "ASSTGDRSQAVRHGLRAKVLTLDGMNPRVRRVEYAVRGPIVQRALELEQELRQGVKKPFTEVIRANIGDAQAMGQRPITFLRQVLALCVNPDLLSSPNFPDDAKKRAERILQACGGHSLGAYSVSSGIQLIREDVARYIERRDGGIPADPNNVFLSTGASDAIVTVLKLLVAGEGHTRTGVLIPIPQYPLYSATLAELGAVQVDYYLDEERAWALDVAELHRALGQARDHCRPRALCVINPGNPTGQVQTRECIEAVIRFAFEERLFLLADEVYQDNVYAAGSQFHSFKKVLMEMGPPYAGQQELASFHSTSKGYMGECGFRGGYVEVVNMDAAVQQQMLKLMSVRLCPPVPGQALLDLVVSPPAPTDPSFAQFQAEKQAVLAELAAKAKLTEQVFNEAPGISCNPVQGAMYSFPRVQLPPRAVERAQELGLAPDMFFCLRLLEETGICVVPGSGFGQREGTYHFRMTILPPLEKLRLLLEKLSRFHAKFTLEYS", "conditions": "known from Eigenbrodt et al. 1994; cited from earlier work"}, "cells": {"system": "cells", "conditions": "known from Eigenbrodt et al. 1994; cited from earlier work"}}, "data": [{"smiles": "CC(O)=C(C#N)C(=O)Nc1ccc(C(F)(F)F)cc1", "note": "[CHBA, 2-cyano-3-hydroxy-but-2-(4-trifluoromethyl-phenyl)-amide]", "values": [{"measurement": "inhibition of tumor growth if the tumor was relatively small at the beginning of the treatment", "setting": "Novikoff hepatoma", "value": "practically complete inhibition"}, {"measurement": "inhibition of the tumor growth (tumor size)", "setting": "Novikoff hepatoma", "value": "substantial inhibition"}, {"measurement": "inhibition of cell density (proliferation)", "setting": "Novikoff hepatoma cells", "value": "practically complete inhibition"}]}, {"smiles": "C[C@H](N)C(=O)O", "note": "[alanine]", "values": [{"measurement": "inhibition of M2-PK", "setting": "M2-PK", "value": "inhibit"}]}, {"smiles": "NOCC(=O)O", "note": "[aminooxyacetate]", "values": [{"measurement": "inhibition of tumor growth if the tumor was relatively small at the beginning of the treatment", "setting": "Novikoff hepatoma", "value": "practically complete inhibition"}, {"measurement": "inhibition of the tumor growth (tumor size)", "setting": "Novikoff hepatoma", "value": "substantial inhibition"}, {"measurement": "inhibition of cell density (proliferation)", "setting": "Novikoff hepatoma cells", "value": "practically complete inhibition"}, {"measurement": "inhibition of glutamate pyruvate transaminase", "setting": "[1]", "value": "inhibit"}, {"measurement": "inhibition of the proliferation of cells", "setting": "cells", "value": "can inhibit"}]}, {"smiles": "N[C@@H]1CON=C1O", "note": "[cycloserine, reference compound]", "values": [{"measurement": "inhibition of glutamate pyruvate transaminase", "setting": "[1]", "value": "inhibit"}, {"measurement": "inhibition of the proliferation of cells", "setting": "cells", "value": "can inhibit"}]}, {"smiles": "O=C(COP(=O)(O)O)[C@@H](O)[C@H](O)[C@H](O)COP(=O)(O)O", "note": "[fructose-1,6-bisphosphate]", "values": [{"measurement": "inhibition of cell density (proliferation)", "setting": "Novikoff hepatoma cells", "value": "practically complete inhibition"}, {"measurement": "displacement of the dimeric form to the highly active tetrameric form of M2-PK", "setting": "M2-PK", "value": "leads to a displacement of the dimeric form to the highly active tetrameric form"}]}, {"smiles": "O=C(O)C(COP(=O)(O)O)OP(=O)(O)O", "note": "(stereo not drawn) [glycerate-2,3-bisphosphate]", "values": [{"measurement": "inhibition of cell density (proliferation)", "setting": "Novikoff hepatoma cells", "value": "practically complete inhibition"}]}, {"smiles": "CC(C)C[C@H](N)C(=O)O", "note": "[leucine]", "values": [{"measurement": "inhibition of M2-PK", "setting": "M2-PK", "value": "inhibit"}]}]}
